Data on one molecule can be found in patent publication US20220088020A1, “TREATMENT OF ALOPECIA AREATA” (LEO PHARMA A/S, priority 2015, published 2022).

For experiment [1], the system named is C3H/HeJ mouse alopecia model. As to the kind of experiment: Experiment 1: promotion of hair growth in C3H/HeJ mouse alopecia model. It is filed as in vivo. To be noted: Compound A 1% or 3% by weight in carrier, 50 μL applied to dorsal region once a day for 78 days; median of each group, FIG. 1. As to the method: (§1) An effect of promoting hair growth by Compound A was evaluated using a C3H/HeJ mouse alopecia model (Non-Patent Literature 1).
A skin specimen having a diameter of 2 to 2.5 cm was prepared from a retired C3H/HeJJcI mouse (CLEA Japan, Inc.) which had spontaneously developed alopecia universalis, and was grafted into a dorsal region of each of eight-week-old female C3H/HeJJcI mice (CLEA Japan, Inc.). Twenty weeks after the surgery, mice which developed alopecia throughout the whole bodies thereof were selected, and a carrier, 1% by weight of a test substance, 3% by weight of the test substance or a control substance was applied to the dorsal region at a volume of 50 μL once a day for 78 days. Day 1 was a day on which the application started. The carrier used was a mixture which contained white soft paraffin, hard paraffin and squalane at a blend ratio of 85:5:10. Compound A was used as the test substance. A betamethasone valerate ointment (0.12%) was used as the control substance.
The Hair Growth Index (HGI) in the dorsal region of each of the mice was determined on day 1, day 7, day 15, day 29, day 43, day 57, day 71 and day 79. […]

Experiment [2] relates to C3H/HeJ mouse alopecia model. Put plainly: Experiment 2: promotion of hair growth in C3H/HeJ mouse alopecia model. It is filed as in vivo. To be noted: Compound A ointment 0.3% or 3% by weight, 50 μL applied to dorsal region once a day for 84 days; median of each group, FIG. 2. As to the method:
as §1
A skin specimen having a diameter of 2 cm was prepared from a retired C3H/HeJJcI mouse (CLEA Japan, Inc.) which had spontaneously developed alopecia universalis, and was grafted into a dorsal region of each of eight-week-old female C3H/HeJJcI mice (CLEA Japan, Inc.). […]
The Hair Growth Index (HGI) in the dorsal region of each of the mice was determined on day 1, day 19, day 29, day 43, day 57, day 71 and day 85. The HGI for each of the mice was calculated by measuring, with naked eyes, the level of the state of hair growth (score; 0: no hair, 1: stubble, short broken hairs, 2: sparse intermediate length hairs, 3: normal length and density hairs) and the percentage (%) of the skin area in which each level of state of hair growth occurred, determining the product of the level of the state of hair growth (score) with the percentage (%) of the skin area in which its level of the state of hair growth occurred, and then summing all of the values of the products.

The subject of experiment [3] is JAK. To be noted: JAK = one or more of JAK1, JAK2, JAK3, TYK2; described in Patent Literature 1 and 2; cited from earlier work.

The structures appear in SMILES notation.

In the case of `C[C@H]1CN(C(=O)CC#N)[C@]12CCN(c1ncnc3[nH]ccc13)C2` [Compound A, 3-[(3S,4R)-3-methyl-6-(7H-pyrrolo[2,3-d]pyrimidin-4-yl)-1,6-diazaspiro[3.4]octan-1-yl]-3-oxopropanenitrile], the “Hair Growth Index (HGI) in the dorsal region” value in experiment [1] and in experiment [2] was “promotion of hair growth” in each case. The JAK inhibition result in experiment [3] is reported as “inhibit JAK”.
